In patent US10053484B2, “Heterocycle-substituted xanthene dyes” (Biotium, Inc., priority 2009, dated 2018):
“Also recorded” adds a separate entry of the source.

Assays:
[1] = Measurement of absorption and emission spectra of free dyes or dye-protein conjugates; type: physicochemical; details: for Absorption Wavelengths / Emission Wavelengths: in PBS
Description: The absorption spectra of free dyes or dye-antibody conjugates were measured on Beckman Coulter DU800 in pH 7.4 PBS. The concentrations of the dyes or conjugates were adjusted so that the maximal absorbance was around 1.0. The fluorescence emission spectra of the free dyes and conjugates were measured on a Hitachi F4500.

[2] = Photostability comparison of dye-antibody conjugates on stained fixed Jurkat cells (microscopy, Cy5 filter set); type: physicochemical; details: for photostability: goat anti-mouse IgG conjugates on fixed Jurkat cells, continuous illumination, relative fluorescence vs. time (FIG. 5)
Description: Jurkat cells were fixed and stained with intracellular mouse anti-human CD3 primary antibody (0.375 ug) followed by 1 ug of goat-anti-mouse IgG conjugated to AlexaFluor633 (DOL 2.3), compound No. 6 (DOL 2.3), DyLight649 (DOL˜6), or Alexa Fluor 647 (DOL˜6). The DOL for each conjugate was the optimal value for each dye. Images were taken on an Olympus mercury arc lamp microscope using a Cy5 filter set. The relative fluorescence vs. time for each sample was plotted (FIG. 5). Traditionally, sulfonated cyanine dyes, such as Alexa Fluor 647 and DyLight 647, have been used for the 633 nm excitation by the HeNe laser with red emission. More recently, rhodamine-based Alexa Fluor 633 dye has become commercially available.

HeLa cells = test: Mitochondrial staining of live HeLa cells; type: cell-based; details: 200 nM compound No. 16 or 10 uM compound No. 74, DMEM, 30 minutes, 37° C. (FIG. 9)
Description: HeLa cells were cultured for 2 days at 37° C., 5% CO2. Live cells were stained with 200 nM compound No. 16 or 10 uM compound No. 74 in DMEM media for 30 minutes at 37° C., 5% CO2. Cells were washed in fresh medium and cells were viewed on a mercury arc lamp microscope using a Cy5 filter set. Images were taken using a CCD camera and Image Pro Express software.

Jurkat cells = test: Mitochondrial staining as a function of membrane potential (flow cytometry, with/without CCCP); type: cell-based; details: 50 nM dye with and without 50 uM CCCP, 30 minutes, FL4 channel (FIG. 10)
Description: Live Jurkat cells were stained with 50 nM Compound No. 16 with and without 50 uM carbonyl cyanide m-chlorophenyl hydrozone (CCCP) for 30 minutes prior to analysis by flow cytometry on the FL4 channel of a BD FACS Calibur. Treatment with CCCP disrupts the mitochondrial membrane potential. The graph depicts the relative geometric mean fluorescence of the stained population treated without (Control) or with 50 uM CCCP. […] The membrane potential-dependent mitochondrial staining by compound No. 16 makes the dye useful for assessing the health of cells as only healthy cells have functional mitochondria and have normal membrane potential. For example, cells undergoing apoptosis are known to lose membrane potential.

[3] = Measurement of absorption and emission spectra of free dyes or dye-protein conjugates; type: physicochemical; details: in MeOH
[4] = cited from earlier work; for absorption wavelength: commercial cyanine dyes used for the 633 nm laser
[5] = known xanthene dyes, background

Molecule	Absorption Wavelengths [1]	Emission Wavelengths [1]	other results
CC1N=c2c(cc3c(c2S(=O)(=O)O)Oc2c(cc4c(c2S(=O)(=O)O)NC(C)C4(C)C)C=3c2nccn2CCCCCC(=O)ON2C(=O)CCC2=O)C1(C)C (centres unmarked) [Compound No. 1]	548 nm	571 nm	
CC1CC(C)(C)Nc2c1cc1c(c2S(=O)(=O)O)Oc2c(S(=O)(=O)O)c3c(cc2=C1c1nccn1CCCCCC(=O)ON1C(=O)CCC1=O)C(C)CC(C)(C)N=3 (centres unmarked) [Compound No. 2]	559 nm	579 nm	
CC1CC(C)(C)Nc2c1cc1c(c2S(=O)(=O)O)Oc2c(S(=O)(=O)O)c3c(cc2=C1c1[nH]cnc1C(=O)O)C(C)CC(C)(C)N=3 (centres unmarked) [Compound No. 3]	529 nm	548 nm	
CC1(C)C=C(CS(=O)(=O)O)c2cc3c(cc2=N1)Oc1cc2c(cc1C=3c1nccn1CCCCCC(=O)ON1C(=O)CCC1=O)C(CS(=O)(=O)O)=CC(C)(C)N2 [Compound No. 4]	603 nm	626 nm	
CCN1c2cc3c(cc2C(CS(=O)(=O)[O-])=CC1(C)C)C(c1nccn1CCCCCC(=O)ON1C(=O)CCC1=O)=c1cc2c(cc1O3)=[N+](CC)C(C)(C)C=C2CS(=O)(=O)O [Compound No. 5]	622 nm	649 nm	
CCN1c2cc3c(cc2C(CS(=O)(=O)O)=CC1(C)C)C(c1nccn1CCCCCC(=O)NCCOCCOCCOCCOCCOCCOCCOCCOCCOCCOCCOCCOC(=O)ON1C(=O)CCC1=O)=c1cc2c(cc1O3)=[N+](CC)C(C)(C)C=C2CS(=O)(=O)[O-] [Compound No. 6]	622 nm	649 nm	absorption peak ([1]; FIG. 1: conjugated to goat anti-mouse IgG in PBS): about 633 nm; photostability [2]: significantly more photostable than DyLight 633; also recorded: approximately similar stability to that of Alexa Fluor 633; also recorded: very photostable
CC1(C)C=C(CS(=O)(=O)[O-])c2cc3c(c4c2N1CCC4)Oc1c2c4c(cc1=C3c1nccn1CCCCCC(=O)ON1C(=O)CCC1=O)C(CS(=O)(=O)O)=CC(C)(C)[N+]=4CCC2 [Compound No. 7]	638 nm	660 nm	
CCN1c2cc3c(cc2C(C)=CC1(C)C)C(c1nccn1Cc1ccc(CCl)cc1)=c1cc2c(cc1O3)=[N+](CC)C(C)(C)C=C2C.[Cl-] [Compound No. 9]	622 nm	648 nm	
CCN1c2cc3c(cc2C(C)=CC1(C)C)C(c1nccn1C)=c1cc2c(cc1O3)=[N+](CC)C(C)(C)C=C2C [Compound No. 16]			localization of dye in live cells (HeLa cells): concentrated in the mitochondria; membrane potential dependence of mitochondrial staining (Jurkat cells): stains mitochondria in a membrane potential-dependent fashion; also recorded: sensitive to disruption of the mitochondrial membrane potential; Absorption Wavelengths [3]: 622 nm; Emission Wavelengths [3]: 648 nm
CC1CC(C)(C)Nc2c1cc1c(c2S(=O)(=O)[O-])Oc2c(S(=O)(=O)O)c3c(cc2=C1c1n(CCCCCC(=O)ON2C(=O)CCC2=O)cc[n+]1C)C(C)CC(C)(C)N=3 (centres unmarked) [Compound No. 29]	592 nm	615 nm	
CCN1c2cc3c(cc2C(C)=CC1(C)C)C(c1nc2ccccc2n1C)=c1cc2c(cc1O3)=[N+](CC)C(C)(C)C=C2C.[Cl-] [Compound No. 70]			Absorption Wavelengths [3]: 628 nm; Emission Wavelengths [3]: 656 nm
CCN1c2cc3c(cc2C(C)=CC1(C)C)C(c1n(C)cc[n+]1C)=c1cc2c(cc1O3)=[N+](CC)C(C)(C)C=C2C [Compound No. 74]			localization of dye in live cells (HeLa cells): concentrated in the mitochondria; Absorption Wavelengths [3]: 660 nm; Emission Wavelengths [3]: 688 nm
CC1(C)C=C(CS(=O)(=O)[O-])c2cc3c(c4c2N1CCC4)Oc1c2c4c(cc1=C3c1n(CCCCCC(=O)ON3C(=O)CCC3=O)cc[n+]1CCCS(=O)(=O)O)C(CS(=O)(=O)[O-])=CC(C)(C)[N+]=4CCC2 [Compound No. 75]	680 nm	701 nm	
CCN1/C(=C/C=C/C=C/C2=[N+](CCCCCC(=O)O)c3ccc(S(=O)(=O)O)cc3C2(C)C)C(C)(C)c2cc(S(=O)(=O)[O-])ccc21 [Cy5]			absorption wavelength [4]: ~650 nm
CCN1c2cc3c(cc2C(CS(=O)(=O)[O-])=CC1(C)C)C(c1nccn1CCCCCC(=O)ON1C(=O)CCC1=O)=c1cc2c(cc1O3)=[N+](CCCS(=O)(=O)O)C(C)(C)C=C2CS(=O)(=O)O [compound 10]	622 nm	649 nm	
N=c1ccc2c(-c3[nH]cnc3C(=O)O)c3ccc(N)cc3oc-2c1 [compound 21]	485 nm	508 nm	
CCN1c2cc3c(cc2C(C)=CC1(C)C)C(c1ccncc1C(=O)[O-])=c1cc2c(cc1O3)=[N+](CCCCCC(=O)O)C(C)(C)C=C2C [compound 23]	599 nm	~620 nm	
CC1(C)C=C(CS(=O)(=O)O)c2cc3c(cc2=N1)Oc1cc2c(cc1C=3c1n(CCCCCC(=O)ON3C(=O)CCC3=O)cc[n+]1CCCS(=O)(=O)O)C(CS(=O)(=O)[O-])=CC(C)(C)N2 [compound 71]	642 nm	662 nm	
CCN1c2cc3c(cc2C(CS(=O)(=O)[O-])=CC1(C)C)C(c1n(CC(=O)N2CCC(C(=O)ON4C(=O)CCC4=O)CC2)cc[n+]1CCCS(=O)(=O)O)=c1cc2c(cc1O3)=[N+](CC)C(C)(C)C=C2CS(=O)(=O)[O-] [compound 72]	660 nm	681 nm	
CC1CC(C)(C)Nc2c1cc1c(c2S(=O)(=O)[O-])Oc2c(S(=O)(=O)O)c3c(cc2=C1c1n(CCCCCC(=O)ON2C(=O)CCC2=O)cc[n+]1CCCS(=O)(=O)O)C(C)CC(C)(C)N=3 (centres unmarked) [compound 76]	593 nm	614 nm	
C/N=c1\cc2oc3cc(NC)c(S(=O)(=O)O)cc3c(-c3nccn3CCCCCC(=O)O)c-2cc1S(=O)(=O)O [compound 77]	578 nm⁻¹		
O=C(O)CCCCCn1ccnc1-c1c2cc/c(=N/CC(F)(F)F)cc-2oc2cc(NCC(F)(F)F)ccc12 [compound 84]	533 nm	550 nm	
CCN1c2cc3c(cc2C(C)=CC1(C)C)C(c1nccs1)=c1cc2c(cc1O3)=[N+](CC)C(C)(C)C=C2C [compound 85]	627 nm	698 nm	
CCN1c2cc3c(cc2C(C)=CC1(C)C)C(c1cocn1)=c1cc2c(cc1O3)=[N+](CC)C(C)(C)C=C2C [compound 87]	647 nm	676 nm	
Alexa Fluor 647 [reference compound]			time to being essentially totally bleached ([2]; goat anti-mouse IgG conjugates on fixed Jurkat cells (FIG. 5)): about 1 minute; photostability [2]: poor photostability; absorption wavelength [4]: ~650 nm
carboxy-rhodamine 110			absorption maxima [4, 5]: 502 nm; emission maxima [4, 5]: 524 nm
